Patent US9284310B2, “Inhibitors of cytomegalovirus” (Boehringer Ingelheim International GmbH, priority 2012, dated 2016)

Columns and labels:
[1] = system: HCMV AD169 virus; assay: HCMV AD169 CPE Assay (Example A); format: cell-based; conditions: Human betaherpesvirus 5, AD169, MRC5, 216 h, MRC-5 cells, 9 days, MTS readout
Method: This assay format is a CPE (Cytopathic effect)-based assay that determines the ability of compounds to protect cells against infection with a dye reduction assay (MTS of CellTiter 96® AQueous Non-Radioactive Cell Proliferation Assay from Promega). The conversion of MTS into aqueous, soluble formazan is performed by dehydrogenase enzymes found in metabolically active cells. The quantity of formazan product determined by absorbance at 490 nm is directly proportional to the number of living cells in culture.
(§1) Serial dilutions of the DMSO stock compound solution are performed using DMSO in columns 2-11 and 14-23. DMSO alone is present in columns 1, 12, 13 and 24. Four μL of the DMSO serial dilutions is obtained and diluted using […] of D-MEM 5% FBS culture medium to obtain 4% DMSO (7×).
To perform the assay, 10 µL of the freshly prepared 4% DMSO serial dilution plate is added to the assay plate containing 40 μL of MRC-5 cells plated the day before (10000 cells per well). Twenty μL of diluted virus is added to columns 2-12 and 14-24 and only D-MEM 5% FBS medium to uninfected control (columns 1 and 13) for a final DMSO concentration of 0.6%.
The virus dilution is based on the amount of virus required to obtain a Signal-to-Background of 3-4 (generally between 0.1 and 1 μL of virus stock per well or MOI=0.05). The assay plates are incubated at 37° C. with 5% CO2 for 9 days in order to obtain 100% CPE in infected control without compound (columns 12 and 24). Ten μL of freshly mixed room temperature MTS/PMS (1:20 v/v) is added and the plates are incubated at 37° C. with 5% CO2 for 4-5 h (until signal saturation at 2.3 in the 100% CPE control). The plates are sealed with TopSeal for biosafety and read on the Envision plate reader (Perkin-Elmer) or equivalent at OD 492 nm.

[2] = system: HCMV AD169-Bac-Luc2 US2-US6 clone #26 virus; assay: HCMV AD169-Bac Luciferase Assay (Example B); format: cell-based, Human Cytomegalovirus; conditions: Human betaherpesvirus 5, AD169, MRC5, 72 h, read-out: EC50 Example B
Description: This assay format is a luciferase reporter-based assay that determines the ability of compounds to inhibit the infection by detecting a luciferase signal decrease following the addition of BIGlo substrate (preparation indicated below) directly in the culture media. Mono-oxygenation of luciferin is catalyzed by luciferase in the presence of Mg2+, ATP and molecular oxygen. The generation of oxyluciferin is a luminescent reaction that can be detected with the proper platereader. Human Cytomegalovirus AD169-Bac is obtained from Dr. Thomas Shenk at Princeton University (reference paper Yu et al. 2002—J. Virol. 76 (5):2316-2328, herein incorpoarated by reference) and modified by recombineering to introduce a humanized firefly luciferase gene (Luc2) at the US2-US6 position in the HCMV genome. The virus is expanded in MRC-5 cells.
as §1
To perform the assay, 7 μL of the freshly prepared 4% DMSO serial dilution plate is added to the assay plate containing […] of MRC-5 cells plated the day before (10000 cells per well). Seventeen μL of diluted virus is added to columns 2-12 and 14-24 and only D-MEM 5% FBS medium to uninfected control (columns 1 and 13) for a final DMSO concentration of 0.6%. The virus dilution is based on the amount of virus required to obtain the highest luciferase signal possible without CPE (generally between 0.05 and 1 μL of virus stock per well or MOI=0.02). The assay plates are incubated at 37° C. with 5% CO2 for 3 days. Fifteen μL of room temperature BIGlo buffer is added to room temperature assay plates also incubated at room temperature for 15 minutes. The plates are sealed with TopSeal for biosafety and the luminescence signal is read on the TopCount plate reader (Perkin-Elmer) or equivalent.

[3] = system: HCMV AD169 virus; assay: HCMV AD169 qPCR 96-Well Assay (Example C); format: cell-based; conditions: Human betaherpesvirus 5, AD169, MRC5, 72 h; qPCR of viral DNA, MRC-5 cells, 3 days
Method: The hCMV quantitative PCR (qPCR) assay evaluates the ability of a compound to inhibit, directly or indirectly, the replication of hCMV viral DNA during the first 72 h following the infection. Compounds that inhibit either entry or the hCMV polymerase are active in this assay. Compounds are tested in the qPCR assay in 96-well plates, using a 9-point dose-response with 8 compounds for each 96-well plate. The assay was adapted from the method described by Schnepf et al., Rapid determination of antiviral drug susceptibility of human cytomegalovirus by real-time PCR, Antiviral Research 81 (2009) 64-67.
Final Concentrations: • 10 mM Tris-HCl pH8.0 • 50 mM KCl • 2 mM MgCl2 • 0.45% Tween20 • 0.45% Nonidet P40
Serial dilutions of the DMSO stock compound solution are performed using DMSO in columns 2-10. DMSO alone is present in columns 1 and 11. Column 12 remains empty. Diluted compounds are further diluted with DMEM 5% FBS cell culture medium.
To perform the assay, 25 μL of inhibitor dilutions freshly prepared is added to the assay plate containing 50 μL of MRC-5 cells plated the day before (30000 cells per well). In a 9 point dose-response, column 1 contains mock infected cells and serves at negative control, with the appropriate concentration of DMSO, columns 2 to 10 contain compound dilutions and column 11 contains infected cells, with the appropriate concentration of DMSO and serves as the positive control. Column 12 serves for the standard curve in the qPCR process. Twenty-five μL of virus diluted in DMEM 5% FBS medium (to infect at MOI=0.05) is added to columns 2-11 and only D-MEM 5% FBS medium to uninfected control (column 1) for a final DMSO concentration of 0.6%. Incubate plates at 37° C. in 5% CO2 incubator for 3 days. Whole cell lysates are then obtained by adding 100 μL of Cell lysis buffer to each well including freshly added Proteinase K at a ratio of 1:5 (i.e. 200 μL Proteinase K:1000 μL Cell Lysis buffer) and incubating the assay plate at 56° C. for 1 h. Plates are centrifuged at 1300 rpm for 2 minutes to remove any condensation before proceeding with the qPCR.
The cell lysate is carefully pipetted up and down to mix well and diluted 1:40 in H2O to give a final dilution of 1:80 relative to the 100 μL of lysis buffer that Is added to the cells. 5 μL of diluted lysate is used for the qPCR reaction. An incubation of 5 minutes at 95° C. in a PCR machine is required to inactivate the Proteinase K. The cell lysates can be stored at −20° C. or used to perform qPCR immediately.
A 81 bp fragment of US17 gene from AD169 is amplified by PCR using primers qHCMV7 and qHCMV8. The PCR product is cloned into pCR4 TOPO vector (Invitrogen) and a clone harboring the insert is selected. A mitochondrial DNA is also added to normalize the HCMV copy number. Serial dilutions of the US17 plasmid and mitochondrial DNA are performed in heat-inactivated lysis buffer at the same dilution as the cell lysates (1:80). Usually, a standard curve ranging from 10E6 to 10E2 copies (per well) is suitable.
A typical qPCR reaction consists of the following:
A qPCR cycle consists of an initial denaturation of DNA and activation of the Taq enzyme at 95° C. for 10 min followed by 45 cycles of 15 seconds at 95° C. and 1 min at 60° C. Fluorescence is measured at each cycle, following the elongation step at 60° C. The reaction, data acquisition and analysis are performed using AppliedBiosystems 7500 Real time PCR system or other suitable real-time PCR system.

`O=C(Nc1ccc(-c2cnc(NC(=O)C3(c4cccc(Cl)c4)CCC3)[nH]2)cc1)c1cscn1` [Compound 1004] showed an EC50 [1] of 98 nM and an EC50 [2] of 7 nM.
In the case of `O=C(Nc1ccc(-c2cnc(-c3cc(C(F)(F)F)cc(C(F)(F)F)c3)[nH]2)cc1)c1cscn1` [Compound 1016], the EC50 [1] is reported as 135 nM and the EC50 [2] is reported as 35 nM.
`O=C(Nc1ccc(-c2cnc(-c3cccc(C(F)(F)F)c3)[nH]2)cc1)c1cscn1` [Compound 1018] gave an EC50 [1] of 380 nM, an EC50 [2] of 100 nM and an EC50 [3] of 270 nM.
`O=C(Nc1ccc(-c2nc(-c3cccc(C(F)(F)F)c3)nn2CCCO)cc1)c1cscn1` [Compound 1034] was tested, and the EC50 [1] was 275 nM and the EC50 [2] was 59 nM.
`O=C(Nc1ccc(-c2cccc(-c3cccc(Cl)c3)n2)cc1)c1cocn1` [Compound 1038] was tested, and the EC50 [1] was 3100 nM and the EC50 [2] was 1190 nM.
Work on `O=C(O)CCn1nc(-c2cccc(Cl)c2)nc1-c1ccc(NC(=O)c2cscn2)cc1` [Compound 1041] yielded an EC50 [1] of 4100 nM and an EC50 [2] of 645 nM.
Molecule `O=C(Nc1ccc(-c2ncc(-c3cccc(Cl)c3)[nH]2)cc1)c1cscn1` [Compound 1045] has an EC50 [1] of 345 nM and an EC50 [2] of 66 nM.
`O=C(Nc1ccc(-c2ncc(-c3cccc(Cl)c3)[nH]2)cn1)c1cscn1` [Compound 1059] was tested, and the EC50 [2] was 425 nM.
`Cc1cccc(-c2nnc(-c3ccc(NC(=O)c4cscn4)cc3)[nH]2)c1` [Compound 1070] gave an EC50 [1] of 510 nM and an EC50 [2] of 93 nM.
With `O=C(Nc1ccc(-c2nc(-c3cccc(C(F)(F)F)c3)nn2CCCN2CCOCC2)cc1)c1cscn1` [Compound 1077] the EC50 [1] was 903 nM and the EC50 [2] was 180 nM.
In the case of `CC(c1cccc(Cl)c1)c1ncc(-c2ccc(NC(=O)c3cscn3)cc2)[nH]1` (centres unmarked) [Compound 1086], the EC50 [1] is reported as 355 nM and the EC50 [2] is reported as 118 nM.
For `CC(c1cccc(C(F)(F)F)c1)c1nc(-c2ccc(NC(=O)c3cscn3)cn2)c[nH]1` (centres unmarked) [Compound 1087], the EC50 [2] was 87 nM.
`CC(O)(c1cccc(C(F)(F)F)c1)c1nc(-c2ccc(NC(=O)c3cscn3)cn2)c[nH]1` (centres unmarked) [Compound 1092] was tested, and the EC50 [2] was 203 nM and the EC50 [3] was 620 nM.
`Cn1c(-c2ccc(NC(=O)c3cscn3)cc2)cnc1-c1cccc(C(F)(F)F)c1` [Compound 1096] was tested, and the EC50 [2] was 665 nM.
`Cn1cc(-c2cccc(C(F)(F)F)c2)nc1-c1ccc(NC(=O)c2cscn2)cc1` [Compound 1097] was tested, and the EC50 [1] was 280 nM and the EC50 [2] was 60 nM.
Molecule `C#CCn1cc(-c2ccc(NC(=O)c3cscn3)cc2)nc1-c1cccc(C(F)(F)F)c1` [Compound 1098] has an EC50 [2] of 100 nM.
With `Cc1c(Cl)cccc1-c1cn(C)c(-c2ccc(NC(=O)c3cscn3)nc2)n1` [Compound 1103] the EC50 [2] was 1170 nM and the EC50 [3] was 5800 nM.
Molecule `NC(=O)CCn1nc(-c2cccc(Cl)c2)nc1-c1ccc(NC(=O)c2cscn2)cc1` [Compound 1109] has an EC50 [2] of 185 nM and an EC50 [3] of 455 nM.
Molecule `CC(c1cccc(C(F)(F)F)c1)c1nc(-c2ccc(NC(=O)c3cscn3)cn2)cn1CCCO` (centres unmarked) [Compound 1111] has an EC50 [2] of 1260 nM and an EC50 [3] of 665 nM.
Molecule `CC(O)(c1cccc(C(F)(F)F)c1)c1nc(-c2ccc(NC(=O)c3cscn3)cn2)cn1CCCO` (centres unmarked) [Compound 1113] has an EC50 [2] of 620 nM and an EC50 [3] of 2100 nM.
In the case of `CC(O)(c1cccc(C(F)(F)F)c1)c1nc(-n2ccc(NC(=O)c3cscn3)cc2=O)c[nH]1` (centres unmarked) [Compound 1114], the EC50 [2] is reported as 150 nM and the EC50 [3] is reported as 596 nM.
In the case of `CC(O)(c1cccc(C(F)(F)F)c1)c1nc(-c2ccc(NC(=O)c3cscn3)cn2)cn1CCCOCc1ccccc1` (centres unmarked) [Compound 1115], the EC50 [2] is reported as 535 nM and the EC50 [3] is reported as 1160 nM.
Molecule `CC(c1cccc(C(F)(F)F)c1)c1nc(-n2ccc(NC(=O)c3cscn3)cc2=O)c[nH]1` (centres unmarked) [Compound 1116] has an EC50 [2] of 27 nM and an EC50 [3] of 160 nM.
`O=C(Nc1ccn(-c2nnc(-c3cccc(Cl)c3)[nH]2)c(=O)c1)c1cscn1` [Compound 1117] was tested, and the EC50 [2] was 1450 nM and the EC50 [3] was 3200 nM.
Work on `CC(O)(c1cccc(C(F)(F)F)c1)c1nc(-n2ccc(NC(=O)c3cscn3)cc2=O)cn1CCCOCc1ccccc1` (centres unmarked) [Compound 1118] yielded an EC50 [2] of 460 nM and an EC50 [3] of 970 nM.
`CC(O)(c1cccc(C(F)(F)F)c1)c1nc(-n2ccc(NC(=O)c3cscn3)cc2=O)cn1CCCO` (centres unmarked) [Compound 1119] showed an EC50 [2] of 770 nM and an EC50 [3] of 2050 nM.
In the case of `O=C(Nc1ccn(-c2cccc(Oc3cccc(Cl)c3)n2)c(=O)c1)c1cscn1` [Compound 1120], the EC50 [2] is reported as 92 nM.
For `O=C(Nc1ccc(-c2nc(-c3cccc(Cl)c3)nn2CC(O)CO)cc1)c1cscn1` (centres unmarked) [Compound 1121], the EC50 [2] was 63 nM and the EC50 [3] was 275 nM.
Work on `O=C(Nc1ccn(-c2cccc(-c3cccc(Cl)c3)n2)c(=O)c1)c1cscn1` [Compound 1129] yielded an EC50 [3] of 145 nM.
For `CC(O)(c1cccc(C(F)(F)F)c1)c1cccc(-n2ccc(NC(=O)c3cscn3)cc2=O)n1` (centres unmarked) [Compound 1130], the EC50 [3] was 375 nM.
Molecule `O=C(Nc1ccc(-c2nnc(-c3cccc(Cl)c3)[nH]2)cc1)c1csnn1` [Compound 1133] has an EC50 [1] of 2050 nM.
`O=C(Nc1ccc(-c2ncc(-c3cccc(C(F)(F)F)c3)[nH]2)cc1)c1csnn1` [Compound 1139] was tested, and the EC50 [1] was 260 nM and the EC50 [2] was 111 nM.
`O=C(Nc1ccc(-c2cnc(-c3cccc(C(F)(F)F)c3)[nH]2)cc1)c1cocn1` [Compound 1143] showed an EC50 [1] of 1220 nM and an EC50 [2] of 245 nM.
